Test results published in US6689806B1, “Indolinone compounds as kinase inhibitors” (Sugen, Inc., priority 1999, dated 2004).
pIC50: −log10 of the molar value. Read-outs that look alike come from different tables or passages of the source.

Experiments:
PDGFR [1] = target: T1, PDGFR (Homo sapiens, UniProt P09619); test: PDGF-induced BrdU incorporation assay; assay type: cell-based; design: expressed in transfected cells; host or cells: 3T3; conditions: 3T3 cells expressing human PDGF-R, PDGF 3.8 nM
T1 sequence (P09619 33-1106): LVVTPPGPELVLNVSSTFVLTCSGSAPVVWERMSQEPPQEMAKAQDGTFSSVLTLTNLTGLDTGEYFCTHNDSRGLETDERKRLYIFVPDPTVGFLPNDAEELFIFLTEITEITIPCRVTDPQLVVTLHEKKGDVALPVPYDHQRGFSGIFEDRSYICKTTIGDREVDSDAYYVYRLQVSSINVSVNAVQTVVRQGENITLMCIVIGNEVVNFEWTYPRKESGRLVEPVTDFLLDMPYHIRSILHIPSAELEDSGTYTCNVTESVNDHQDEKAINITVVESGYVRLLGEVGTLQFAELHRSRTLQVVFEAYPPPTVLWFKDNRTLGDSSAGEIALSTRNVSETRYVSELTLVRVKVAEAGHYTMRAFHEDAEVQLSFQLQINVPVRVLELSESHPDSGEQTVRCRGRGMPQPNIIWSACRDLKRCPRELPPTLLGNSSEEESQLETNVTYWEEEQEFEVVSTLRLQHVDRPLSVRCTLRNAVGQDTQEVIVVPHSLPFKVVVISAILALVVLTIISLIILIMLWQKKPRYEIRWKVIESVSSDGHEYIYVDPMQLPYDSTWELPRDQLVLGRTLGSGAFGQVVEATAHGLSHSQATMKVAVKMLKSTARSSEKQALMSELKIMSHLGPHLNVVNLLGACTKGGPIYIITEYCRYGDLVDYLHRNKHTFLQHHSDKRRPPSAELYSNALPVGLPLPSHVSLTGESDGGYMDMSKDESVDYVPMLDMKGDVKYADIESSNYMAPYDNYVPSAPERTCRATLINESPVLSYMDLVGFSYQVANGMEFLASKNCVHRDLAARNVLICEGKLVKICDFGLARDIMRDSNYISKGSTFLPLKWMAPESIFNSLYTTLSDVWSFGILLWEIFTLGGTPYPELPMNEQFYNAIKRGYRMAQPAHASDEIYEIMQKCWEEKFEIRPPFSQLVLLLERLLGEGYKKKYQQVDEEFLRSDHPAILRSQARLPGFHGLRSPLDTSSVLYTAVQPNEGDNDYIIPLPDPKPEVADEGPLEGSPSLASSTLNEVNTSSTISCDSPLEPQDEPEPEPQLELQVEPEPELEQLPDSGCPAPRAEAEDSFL
Protocol: The cellular/biologic assays described herein measure the amount of DNA made in response to activation of a test kinase, which is a general measure of a proliferative response. The general procedure for this assay is as follows: a compound is introduced to cells expressing the test kinase, either naturally or recombinantly, for some period of time after which, if the test kinase is a receptor, a ligand known to activate the receptor is added. After incubation at least overnight, a DNA labeling reagent such as Bromodeoxy-uridine (BrdU) or 3H-thymidine is added. The amount of labeled DNA is detected with either an anti-BrdU antibody or by measuring radioactivity and is compared to control cells not contacted with a test compound.
PDGF-Induced BrdU Incorporation Assay
(8) 3T3 cell line genetically engineered to express human PDGF-R.
(1) Cells are seeded at 8000 cells/well in DMEM, 10% CS, 2 mM Gln in a 96 well plate. Cells are incubated overnight at 37° C. in 5% CO2.
(2) After 24 hours, the cells are washed with PBS, and then are serum starved in serum free medium (0% CS DMEM with 0.1% BSA) for 24 hours.
(3) On day 3, ligand (PDGF, 3.8 nM, prepared in DMEM with 0.1% BSA) and test compounds are added to the cells simultaneously. The negative control wells receive serum free DMEM with 0.1% BSA only; the positive control cells receive the ligand (PDGF) but no test compound. Test compounds are prepared in serum free DMEM with ligand in a 96 well plate, and serially diluted for 7 test concentrations.
(4) After 20 hours of ligand activation, diluted BrdU labeling reagent (1: 100 in DMEM, 0.1% BSA) is added and the cells are incubated with BrdU (final concentration=10 μM) for 1.5 hours.
(10) The absorbance of the samples are measured at 410 nm (in “dual wavelength” mode with a filter reading at 490 nm, as a reference wavelength) on a Dynatech ELISA plate reader.

PDGFR [2] = target: T1, PDGFR; test: Biochemical PDGFR assay (ELISA); design: expressed in transfected cells; host or cells: NIH 3T3; conditions: read-out: PDGFr biochem IC50
Protocol: This assay measures the in vitro kinase activity of PDGFR using ELISA.
6. PDGFR-β expressing NlH 3T3 cell lysate.
1. Coat Corning 96 well ELISA plates with 0.5 μg 28D4C10 in 100 μL PBS per well, store overnight at 4° C.
5. Dilute lysate in HNTG (10 μg lysate/100 μL HNTG)
6. Add 100 μL of diluted lysate to each well. Shake at room temperature for 60 min.
8. Add 80 μL working kinase buffer mix to ELISA plate containing captured PDGFR.
9. Dilute test compound 1:10 in TBS in 96-well polypropylene plates (i.e., 10 μL compound+90 μL TBS).
10. Add 10 μL diluted test compound to ELISA plate.
11. Incubate for 30 minutes while shaking at room temperature.
12. Add 10 μL ATP directly to all wells except negative control well (final well volume should be approximately 100 μL with 20 μM ATP in each well.) Incubate 30 minutes while shaking.
13. After 30 minutes, stop reaction by adding 10 μL of 200 mM EDTA (pH 8.0) to each well.
15. Add 100 μL anti-phosphotyrosine (1:3000 dilution in TBST) per well. Incubate 30-45 min. at room temperature, with shaking.
17. Add 100 μL Biosource Goat anti-rabbit IgG peroxidase conjugate (1:2000 dilution in TBST) to each well. Incubate 30 min. at room temperature, with shaking.
19. Add 100 μL of ABTS/H2O2 solution to each well.
22. Read assay on Dynatech MR7000 ELISA reader: test filter: 410 nM, reference filter: 630 nM.

EGFR = EGFR (Homo sapiens, UniProt P00533); test: Biochemical EGFR assay (ELISA); design: A431 cell lysate; endogenous in cells; host or cells: A431; conditions: read-out: EGFr biochem IC50
EGFR, sequence (P00533 25-1210): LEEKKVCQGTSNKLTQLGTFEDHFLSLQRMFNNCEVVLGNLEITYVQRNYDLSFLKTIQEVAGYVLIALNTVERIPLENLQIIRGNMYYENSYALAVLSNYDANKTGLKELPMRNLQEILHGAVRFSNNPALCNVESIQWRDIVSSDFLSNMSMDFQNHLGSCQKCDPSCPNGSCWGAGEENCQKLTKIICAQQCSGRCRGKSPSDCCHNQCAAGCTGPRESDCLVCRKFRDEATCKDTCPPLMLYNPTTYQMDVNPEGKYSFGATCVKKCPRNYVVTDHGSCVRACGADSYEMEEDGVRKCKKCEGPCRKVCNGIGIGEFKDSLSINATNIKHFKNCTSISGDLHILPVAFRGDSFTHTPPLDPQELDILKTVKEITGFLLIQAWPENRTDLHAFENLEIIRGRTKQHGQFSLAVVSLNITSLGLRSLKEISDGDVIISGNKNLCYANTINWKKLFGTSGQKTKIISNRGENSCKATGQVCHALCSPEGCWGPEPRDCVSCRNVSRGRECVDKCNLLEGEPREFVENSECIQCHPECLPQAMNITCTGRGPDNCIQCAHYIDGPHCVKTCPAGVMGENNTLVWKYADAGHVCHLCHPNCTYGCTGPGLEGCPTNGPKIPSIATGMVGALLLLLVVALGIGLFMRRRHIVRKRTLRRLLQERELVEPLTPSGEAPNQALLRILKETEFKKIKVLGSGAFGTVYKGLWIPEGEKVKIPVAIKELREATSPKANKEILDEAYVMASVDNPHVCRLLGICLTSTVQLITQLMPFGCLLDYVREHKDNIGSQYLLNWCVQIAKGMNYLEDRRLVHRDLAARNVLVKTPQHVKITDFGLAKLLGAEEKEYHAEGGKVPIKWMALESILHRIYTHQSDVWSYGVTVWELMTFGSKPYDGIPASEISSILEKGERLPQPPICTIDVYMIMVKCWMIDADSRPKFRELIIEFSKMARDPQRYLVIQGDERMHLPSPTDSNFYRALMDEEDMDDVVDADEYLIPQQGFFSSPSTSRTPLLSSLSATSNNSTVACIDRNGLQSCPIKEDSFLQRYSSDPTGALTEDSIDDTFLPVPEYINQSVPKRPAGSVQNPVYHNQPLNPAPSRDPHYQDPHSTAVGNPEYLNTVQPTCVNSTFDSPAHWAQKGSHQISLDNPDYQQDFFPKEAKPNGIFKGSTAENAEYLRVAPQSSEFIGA
How it was run: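 EGFR is captured from cell lysate onto SUMO1-coated plates and incubated with compound diluted in TBS. The kinase reaction is stopped after 5 min with EDTA. Substrate phosphotyrosine is detected with anti-phosphotyrosine and peroxidase-linked secondary antibody, then ABTS/H2O2 read at 410 nm (reference 630 nm).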

A431 = A431 growth; assay type: cell-based; conditions: Homo sapiens, A-431, A431 cells
SKOV3 = SKOV3 growth; assay type: cell-based; conditions: Homo sapiens, SK-OV-3, SKOV3 cells
[3] = Table 7, read-out: BrdU DNA syn. PDGFr IC50
[4] = Table 7, in vitro kinase activity
[5] = Table 5, read-out: BrdU DNA syn. PDFGr IC50
[6] = Table 5, in vitro kinase activity

SMILES	pIC50 (PDGFR [1]; [3])	pIC50 (PDGFR [2]; [4])	pIC50 (EGFR; [4])	pIC50 (A431; Table 5)	pIC50 (PDGFR [1]; [5])	pIC50 (PDGFR [2]; [6])	pIC50 (EGFR; [6])	pIC50 (SKOV3; Table 5)	pIC50 (A431; Table 7)	pIC50 (SKOV3; Table 7)
Cc1ccc(O)c(C=C2C(=O)Nc3cccc(CCO)c32)n1 (racemic) [IN-022, 4-(2-Hydroxy-ethyl)-3-(3-hydroxy-6-methyl-pyridin-2-ylmethylene)-1,3-dihydro-indol-2-one]	< 4.30	< 4.00	< 4.00							
COc1ccc(CC2C(=O)Nc3ccc(F)cc32)cc1C1CCCC1 (stereo not drawn) [AAI-5, 3-(3-Cyclopentyl-4-methoxybenzyl)-5-fluoro-1,3-dihydroindol-2-one]				5.28	4.49	< 4.00	< 4.00	4.75		
COc1ccc(CC2C(=O)Nc3cc(NC(C)=O)ccc32)cc1-c1cccs1 (stereo not drawn) [AAI-6, N-[3-(4-Methoxy-3-thiophen-2-ylbenzyl)-2-oxo-2,3-dihydro-1H-indol-6-yl]-acetamide]					< 4.30	< 4.00	< 4.00			
CC(=O)Nc1ccc2c(c1)NC(=O)C2Cc1ccc(OCCN2CCOCC2)c(C2CCCCC2)c1 (stereo not drawn) [AAI-7, N-{3-[3-Cyclohexyl-4-(2-morpholin-4-ylethoxy)-benzyl]-2-oxo-2,3-dihydro-1H-indol-6-yl}-acetamide]					4.51	< 4.00	< 4.00			
COc1ccc(CC2C(=O)Nc3ccc(CCN4CCOCC4)cc32)cc1-c1ccsc1 (stereo not drawn) [AAI-8, 3-(4-Methoxy-3-thiophen-3-ylbenzyl)-5-(2-morpholin-4-ylethyl)-1,3-dihydroindol-2-one]					< 4.30	< 4.00	< 4.00			
COc1c(C(C)C)cc(CC2C(=O)Nc3ccccc32)cc1C(C)C (stereo not drawn) [AAI-10, 3-(3,5-Diisopropyl-4-methoxybenzyl)-1,3-dihydroindol-2-one]				4.75	< 4.30	< 4.00	< 4.00	4.76		
O=C1Nc2ccc(F)cc2C1Cc1ccc(O)c(C2CCCC2)c1 (stereo not drawn) [AAI-11, 3-(3-Cyclopentyl-4-hydroxybenzyl)-5-fluoro-1,3-dihydroindol-2-one]				4.53	< 4.30	< 4.00	< 4.00	4.66		
COc1cccc(-c2ccc3c(c2)NC(=O)C3Cc2ccccc2O)c1 (stereo not drawn) [AAI-13, 3-(2-Hydroxybenzyl)-6-(3-methoxyphenyl)-1,3-dihydroindol-2-one]				< 4.30	< 4.30	< 4.00	< 4.00	< 4.30		
Cc1cccc2c1C(Cc1ccc3[nH]ccc3c1)C(=O)N2 (stereo not drawn) [AAI-16, 3-(1H-Indol-5-ylmethyl)-4-methyl-1,3-dihydroindol-2-one]					< 4.30	< 4.00	< 4.00			
O=C1Nc2ccccc2C1Cc1ccc2[nH]ccc2c1 (stereo not drawn) [AAI-17, 3-(1H-Indol-5-ylmethyl)-1,3-dihydroindol-2-one]					< 4.30	< 4.00	< 4.00			
Cc1[nH]c(CC2C(=O)Nc3ccccc32)c(C)c1CCCN(C)C (stereo not drawn) [AAI-18, 3-[4-(3-Dimethylaminopropyl)-3,5-dimethyl-1H-pyrrol-2-ylmethyl]-1,3-dihydroindol-2-one]				< 4.30	5.41	6.25	< 4.00	4.37		
COc1ccccc1-c1ccc2c(c1)NC(=O)C2Cc1[nH]c(C)c(CCCN(C)C)c1C (stereo not drawn) [AAI-20, 3-[4-(3-Dimethylamino-propyl)-3,5-dimethyl-1H-pyrrol-2-ylmethyl]-6-(2-methoxy-phenyl)-1,3-dihydro-indol-2-one]				4.96	5.06	5.67	< 4.00	5.06		
COc1cccc(-c2ccc3c(c2)NC(=O)C3Cc2[nH]c(C)c(CCCN(C)C)c2C)c1 (stereo not drawn) [AAI-21, 3-[4-(3-Dimethylaminopropyl)-3,5-dimethyl-1H-pyrrol-2-ylmethyl]-6-(3-methoxyphenyl)-1,3-dihydroindol-2-one]					5.92	5.47	4.31			
COc1ccc(-c2ccc3c(c2)NC(=O)C3Cc2[nH]c(C)c(CCCN(C)C)c2C)cc1 (stereo not drawn) [AAI-22, 3-[4-(3-Dimethylaminopropyl)-3,5-dimethyl-1H-pyrrol-2-ylmethyl]-6-(4-methoxyphenyl)-1,3-dihydroindol-2-one]				4.48	5.94	4.10	< 4.00	< 4.30		
Cc1[nH]c(CC2C(=O)Nc3ccc(Cl)cc32)c(C)c1CCCN(C)C (stereo not drawn) [AAI-23, 5-Chloro-3-[4-(3-dimethylaminopropyl)-3,5-dimethyl-1H-pyrrol-2-ylmethyl]-1,3-dihydroindol-2-one]					6.46	6.09	< 4.00			
O=C1Nc2cc(-c3ccccc3)ccc2C1Cc1cccc(F)c1O (stereo not drawn) [AAI-24, 3-(3-Fluoro-2-hydroxybenzyl)-6-phenyl-1,3-dihydroindol-2-one]					< 4.30	< 4.00	< 4.00			
COc1ccc(CC2C(=O)Nc3cc(-c4ccccc4)ccc32)c(O)c1 (stereo not drawn) [AAI-25, 3-(2-Hydroxy-4-methoxybenzyl)-6-phenyl-1,3-dihydroindol-2-one]					< 4.30	< 4.00	< 4.00			
Cc1cccc(CC2C(=O)Nc3cccc(CCO)c32)n1 (stereo not drawn) [AAI-27, 4-(2-Hydroxyethyl)-3-(6-methylpyridin-2-ylmethyl)-1,3-dihydroindol-2-one]					< 4.30	< 4.00	< 4.00			
CC(C)c1cccc(OCCc2cccc3c2CC(=O)N3)c1 [IN-001, 4-[2-(3-Isopropyl-phenoxy)-ethyl]-1,3-dihydro-indol-2-one]	4.45	< 4.00	< 4.00						4.91	4.56
CC(C)c1ccccc1OCCc1cccc2c1CC(=O)N2 [IN-002, 4-[2-(2-Isopropyl-phenoxy)-ethyl]-1,3-dihydro-indol-2-one]	4.43	< 4.00	< 4.00						5.09	4.61
O=C1Nc2cccc(CCO)c2/C1=C/c1ccccn1 [IN-005, 4-(2-Hydroxy-ethyl)-3-pyridin-2-ylmethylene-1,3-dihydro-indol-2-one]	5.77	< 4.00	< 4.00							
Cc1[nH]c(/C=C2\C(=O)Nc3cccc(CCOc4cccc(C(C)C)c4)c32)c(C)c1CCCN(C)C [IN-023]	4.63	4.31	< 4.00							
Cc1[nH]c(/C=C2\C(=O)Nc3cccc(CCOc4ccc(C(C)C)cc4)c32)c(C)c1CCC(=O)O [IN-024, 3-(5-{4-[2-(4-Isopropyl-phenoxy)-ethyl]-2-oxo-1,2-dihydro-indol-3-ylidenemethyl}-2,4-dimethyl-1H-pyrro-3-yl)-propionic acid]	4.30	4.01	< 4.00							
